Numbered stars: 1 amine (or outer) side, 2 acyl side, 3 side chain; on linkers, the order of the positions; unused ones are H or OH. Bridge positions count the residues as written; N and C are the ends. Square brackets hold non-standard residues; d marks the D form. Peptide text beside a SMILES is read from it. * marks the point of attachment. X2 = O=C([C@@H]1C[C@@H](SC/C=C/C[*:3])CN1[*:1])[*:2]; Trp(7-aza) = N[C@@H](Cc1c[nH]c2ncccc12)C(=O)O; X1 = C[C@@](N[*:1])(C(=O)[*:2])c1ccccc1; Phe(4-F) = N[C@@H](Cc1ccc(F)cc1)C(=O)O; mXylylene = c1cc(C[*:1])cc(C[*:2])c1; NMeE = CN[C@@H](CCC(=O)O)C(=O)O; Aad = N[C@@H](CCCC(=O)O)C(=O)O; Pen = CC(C)(S)[C@H](N)C(=O)O; Tle = CC(C)(C)[C@H](N)C(=O)O; αMeV = CC(C)[C@](C)(N)C(=O)O; S5 = C=CCCC[C@](C)(N)C(=O)O; NMeA = CN[C@@H](C)C(=O)O; Nva = CCC[C@H](N)C(=O)O; Thp = NC1(C(=O)O)CCOCC1; Ac4c = NC1(C(=O)O)CCC1; Ac3c = NC1(C(=O)O)CC1; Aib = CC(C)(N)C(=O)O; Ms = CS(=O)(=O)*; Mpa = O=C(O)CCS
How the values were obtained:
Format in all cases: binding
[1] = molecular target: human PCSK9 / human LDLR EGFa domain interaction (Homo sapiens, UniProt Q8NBP7); test: TR-FRET assay of inhibition of the PCSK9-LDLR protein-protein interaction; details: 20 nM avitag-biotinylated human PCSK9, 20 nM his-tagged human LDLR EGFa domain, 2 hours, room temperature
human PCSK9 / human LDLR EGFa domain interaction, sequence (Q8NBP7 153-692): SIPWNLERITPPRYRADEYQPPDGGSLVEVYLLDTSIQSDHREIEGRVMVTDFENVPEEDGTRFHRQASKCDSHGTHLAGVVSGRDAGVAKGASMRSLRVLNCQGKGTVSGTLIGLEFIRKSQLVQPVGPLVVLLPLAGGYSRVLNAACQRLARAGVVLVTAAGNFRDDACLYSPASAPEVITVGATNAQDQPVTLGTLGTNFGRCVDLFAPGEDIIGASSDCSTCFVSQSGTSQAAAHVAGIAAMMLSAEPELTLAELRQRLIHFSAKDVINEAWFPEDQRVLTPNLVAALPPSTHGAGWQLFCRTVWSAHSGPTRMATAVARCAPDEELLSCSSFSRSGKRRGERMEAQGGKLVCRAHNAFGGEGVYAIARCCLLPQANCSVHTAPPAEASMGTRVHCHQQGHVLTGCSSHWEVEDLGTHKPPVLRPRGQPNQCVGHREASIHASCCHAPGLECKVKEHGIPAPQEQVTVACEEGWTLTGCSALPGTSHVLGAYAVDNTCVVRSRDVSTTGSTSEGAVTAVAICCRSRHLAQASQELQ
human PCSK9 / human LDLR EGFa domain interaction, sequence (Q8NBP7 31-152 partner limits assumed): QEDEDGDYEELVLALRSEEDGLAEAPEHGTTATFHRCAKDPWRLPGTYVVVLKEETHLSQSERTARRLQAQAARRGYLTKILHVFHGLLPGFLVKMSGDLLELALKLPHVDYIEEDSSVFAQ
In short: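 Half-maximal inhibitory concentrations came from 4-parameter fits of dose-response data. Proteins: biotinylated PCSK9, His-tagged LDLR EGFa, 20 nM each; labels 5 nM; 2 h, room temperature; buffer 50 mM HEPES, 150 mM NaCl, 5 mM CaCl2.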

PCSK9 [2] = molecular target: T1, PCSK9 (Homo sapiens, UniProt Q8NBP7); test: PCSK9 Alexa FRET Standard assay (displacement of AlexaFluor647 tagged cyclic peptide Reagent A); details: 0.5 nM PCSK9, 20 nM AF cyclic peptide Reagent A
T1 sequence (Q8NBP7 153-692): as the sequence (Q8NBP7 153-692) above
In short: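 TR-FRET displacement: 0.5 nM biotinylated PCSK9 with 1.25 nM Strep-Eu and 20 nM AlexaFluor-tagged cyclic peptide (final) in 50 mM HEPES pH 7.4, 0.15 M NaCl, 5 mM CaCl2, 0.01% BSA, 0.01% P20, ≥2 h at room temperature. IC50 from sigmoidal fit, converted to Ki via peptide KD; falling Eu counts flagged false positives.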

PCSK9 [3] = molecular target: T1, PCSK9; test: PCSK9 Alexa FRET Plus assay (displacement of AlexaFluor647 tagged cyclic peptide Reagent B); details: 0.5 nM PCSK9, 960 nM AF cyclic peptide Reagent B
Method: A solution containing 1 nM biotinylated PCSK9+2.5 nM Lance Streptavidin Europium (Strep-Eu) was made in 50 mM HEPES pH 7.4, 0.15 M NaCl, 5 mM CaCl2), 0.01% BSA, and 0.01% Surfactant P20. A separate solution containing 1920 nM of the AlexaFluor tagged cyclic peptide was made in the same buffer system. An Echo was used to transfer 0.075 ul of compound plus 0.675 ul of DMSO to each well of an assay plate followed by the addition of 15 ul of PCSK9+Stept-Eu and 15 ul of AF peptide. The final assay volume was 30.750 ul containing 0.5 nM PCSK9, 1.25 nM Strep-Eu, and 960 nM AF cyclic peptide. The reaction was incubated at room temperature for at least two hours prior to fluorescence measurements using an Envision Multilabel Reader. IC50 values were determined by fitting data to a sigmoidal dose-response curve using nonlinear regression. Ki was then calculated from the IC50 and the KD of AF cyclic peptide. Counts (B-counts) of the europium-labeled PCSK9 were followed to observe if compounds were adversely affecting PCSK9. A fall off of the B-counts likely indicated a false positive of inhibition. Data from this procedure was reported as “P=‘numerical value’ (nanomolar)”

| Compound | IC50 [1] | IC50 (PCSK9 [2]) | IC50 (PCSK9 [3]) |
| --- | --- | --- | --- |
| CC(=O)N[C@H]1CSCc2cccc(c2)CSC[C@H](C(N)=O)NC(=O)[C@H]([C@@H](C)O)NC(=O)[C@](C)(C(C)C)NC(=O)[C@H](Cc2ccc(O)cc2)NC(=O)[C@H](C)NC(=O)C2(CCOCC2)NC(=O)[C@H](Cc2c[nH]c3ncccc23)NC(=O)[C@H]([C@@H](C)O)NC(=O)[C@@H]2CCCN2C(=O)[C@H](Cc2ccc(O)cc2)NC(=O)[C@H](C(C)(C)C)NC1=O [Compound 187] (Ac-C[Tle]YPT[Trp(7-aza)][Thp]AY[αMeV]T[dC]-NH2; linker 1-12 via mXylylene) | 1 to 100 nM | 1 to 100 nM | 1 to 100 nM |
| C=CCCC[C@]1(C)NC(=O)[C@H](CCC)NC(=O)[C@H](Cc2ccc(O)cc2)NC(=O)[C@H](C)NC(=O)C(C)(C)NC(=O)[C@H](Cc2c[nH]c3ncccc23)NC(=O)[C@H]([C@@H](C)O)NC(=O)[C@@H]2CCCN2C(=O)[C@H](Cc2ccc(O)cc2)NC(=O)[C@H](C(C)(C)C)NC(=O)[C@@H](NC(C)=O)CCCC(=O)NCCCC[C@@H](C(N)=O)NC1=O [Compound 053] (Ac-[Aad][Tle]YPT[Trp(7-aza)][Aib]AY[Nva][S5]K-NH2; lactam 1-12) | 21000 to 50000 nM | 1000 to 21000 nM |  |
| CC(C)[C@]1(C)NC(=O)[C@H](Cc2ccc(O)cc2)NC(=O)[C@H](C)NC(=O)C2(CCC2)NC(=O)[C@H](Cc2c[nH]c3ncccc23)NC(=O)[C@H]([C@@H](C)O)NC(=O)[C@@H]2CCCN2C(=O)[C@H](Cc2ccc(O)cc2)NC(=O)[C@H](C(C)(C)C)NC(=O)[C@@H](NS(C)(=O)=O)CSCc2cccc(c2)CSC[C@H](C(N)=O)NC(=O)[C@H]([C@@H](C)O)NC1=O [Compound 192] (Ms-C[Tle]YPT[Trp(7-aza)][Ac4c]AY[αMeV]T[dC]-NH2; linker 1-12 via mXylylene) | 1 to 100 nM | 1 to 100 nM |  |
| CCC[C@@H]1NC(=O)[C@H](Cc2c[nH]c3ncccc23)NC(=O)[C@H]([C@@H](C)O)NC(=O)[C@H](Cc2c[nH]cn2)NC(=O)[C@H](Cc2ccc(O)cc2)NC(=O)[C@H](C(C)(C)C)NC(=O)CCSCc2cccc(c2)CSC[C@@H](C(N)=O)NC(=O)[C@H]([C@@H](C)O)NC(=O)[C@H](CCC)NC(=O)[C@H](Cc2ccc(O)cc2)NC(=O)[C@H](CCCC(=O)O)NC1=O [Compound 259] ([Mpa][Tle]YHT[Trp(7-aza)][Nva][Aad]Y[Nva]TC-NH2; linker 1-12 via mXylylene) | 100 to 1000 nM | 1000 to 21000 nM |  |
| CC(=O)N[C@H]1CSCc2cccc(c2)CSC[C@H](C(N)=O)NC(=O)[C@H]([C@@H](C)O)NC(=O)[C@](C)(C(C)C)NC(=O)[C@H](Cc2ccc(O)cc2)NC(=O)[C@H](C)NC(=O)[C@](C)(c2ccccc2)NC(=O)[C@H](Cc2c[nH]c3ncccc23)NC(=O)[C@H]([C@@H](C)O)NC(=O)[C@@H]2CCCN2C(=O)[C@H](Cc2ccc(O)cc2)NC(=O)[C@H](C(C)(C)C)NC1=O [Compound 190] (Ac-C[Tle]YPT[Trp(7-aza)][X1]AY[αMeV]T[dC]-NH2; linker 1-12 via mXylylene) | 21000 to 50000 nM | 1000 to 21000 nM | 250 to 2000 nM |
| CC(=O)N[C@H]1CSCc2cccc(c2)CSC[C@H](C(N)=O)NC(=O)[C@H]([C@@H](C)O)NC(=O)[C@](C)(C(C)C)NC(=O)[C@H](Cc2ccc(O)cc2)NC(=O)[C@H](C)NC(=O)C2(CC2)NC(=O)[C@H](Cc2c[nH]c3ncccc23)NC(=O)[C@H]([C@@H](C)O)NC(=O)[C@@H]2CCCN2C(=O)[C@H](Cc2ccc(O)cc2)NC(=O)[C@H](C(C)(C)C)NC1=O [Compound 191] (Ac-C[Tle]YPT[Trp(7-aza)][Ac3c]AY[αMeV]T[dC]-NH2; linker 1-12 via mXylylene) | 1 to 100 nM | 1 to 100 nM |  |
| CC(=O)N[C@H]1CSCc2cccc(c2)CSC[C@@H](C(N)=O)NC(=O)[C@H]([C@@H](C)O)NC(=O)C(C)(C)NC(=O)[C@H](Cc2ccc(O)cc2)NC(=O)[C@H](C)NC(=O)C(C)(C)NC(=O)[C@H](Cc2c[nH]c3ncccc23)NC(=O)[C@H]([C@@H](C)O)NC(=O)[C@@H]2CCCN2C(=O)[C@H](Cc2ccc(O)cc2)NC(=O)[C@H](C(C)(C)C)NC1=O [Compound 179] (Ac-C[Tle]YPT[Trp(7-aza)][Aib]AY[Aib]TC-NH2; linker 1-12 via mXylylene) | 21000 to 50000 nM | 1000 to 21000 nM |  |

Other lines, results leading:

| IC50 [1] | IC50 (PCSK9 [2]) | IC50 (PCSK9 [3]) | Compound |
| --- | --- | --- | --- |
| 50000 to 100000 nM | 50000 to 100000 nM |  | CCC[C@@H]1NC(=O)[C@H](Cc2ccc(O)cc2)NC(=O)[C@H](CCC(=O)O)NC(=O)[C@H](C)N(C)C(=O)[C@H](Cc2c[nH]c3ncccc23)NC(=O)[C@H]([C@@H](C)O)NC(=O)[C@H](Cc2c[nH]cn2)NC(=O)[C@H](Cc2ccc(O)cc2)NC(=O)[C@H](C(C)(C)C)NC(=O)CCSCc2cccc(c2)CSC[C@@H](C(N)=O)NC(=O)[C@H]([C@@H](C)O)NC1=O [Compound 207] ([Mpa][Tle]YHT[Trp(7-aza)][NMeA]EY[Nva]TC-NH2; linker 1-12 via mXylylene) |
| 100 to 1000 nM | 100 to 1000 nM |  | CC(=O)N[C@H]1CCCCNC(=O)CCC[C@@H](C(N)=O)NC(=O)[C@H]([C@@H](C)O)NC(=O)[C@](C)(C(C)C)NC(=O)[C@H](Cc2ccc(O)cc2)NC(=O)[C@H](C)NC(=O)C(C)(C)NC(=O)[C@H](Cc2c[nH]c3ncccc23)NC(=O)[C@H]([C@@H](C)O)NC(=O)[C@@H]2C[C@@H]3CN2C(=O)[C@H](Cc2ccc(O)cc2)NC(=O)[C@@H](NC1=O)C(C)(C)SC/C=C/CS3 [Compound 350] (Ac-K[Pen]Y[X2]T[Trp(7-aza)][Aib]AY[αMeV]T[Aad]-NH2; lactam 1-12; thioether 2-4) |
| 100 to 1000 nM | 1000 to 21000 nM |  | CCC[C@@H]1NC(=O)[C@H](Cc2ccc(O)cc2)NC(=O)[C@H](CCC(=O)O)NC(=O)[C@H](Cc2ccc(F)cc2)NC(=O)[C@H](Cc2c[nH]c3ncccc23)NC(=O)[C@H]([C@@H](C)O)NC(=O)[C@H](Cc2c[nH]cn2)NC(=O)[C@H](Cc2ccc(O)cc2)NC(=O)[C@H](C(C)(C)C)NC(=O)CCSCc2cccc(c2)CSC[C@@H](C(N)=O)NC(=O)[C@H]([C@@H](C)O)NC1=O [Compound 265] ([Mpa][Tle]YHT[Trp(7-aza)][Phe(4-F)]EY[Nva]TC-NH2; linker 1-12 via mXylylene) |
| 50000 to 100000 nM | 50000 to 100000 nM |  | CCC[C@@H]1NC(=O)[C@H](Cc2ccc(O)cc2)NC(=O)[C@H](CCC(=O)O)N(C)C(=O)[C@H](CCC)NC(=O)[C@H](Cc2c[nH]c3ncccc23)NC(=O)[C@H]([C@@H](C)O)NC(=O)[C@H](Cc2c[nH]cn2)NC(=O)[C@H](Cc2ccc(O)cc2)NC(=O)[C@H](C(C)(C)C)NC(=O)CCSCc2cccc(c2)CSC[C@@H](C(N)=O)NC(=O)[C@H]([C@@H](C)O)NC1=O [Compound 208] ([Mpa][Tle]YHT[Trp(7-aza)][Nva][NMeE]Y[Nva]TC-NH2; linker 1-12 via mXylylene) |
| 1 to 100 nM | 1 to 100 nM |  | CC(=O)N[C@H]1CSCc2cccc(c2)CSC[C@H](C(N)=O)NC(=O)[C@H]([C@@H](C)O)NC(=O)[C@](C)(C(C)C)NC(=O)[C@H](Cc2ccc(O)cc2)NC(=O)[C@H](C)NC(=O)C2(CCC2)NC(=O)[C@H](Cc2c[nH]c3ncccc23)NC(=O)[C@H]([C@@H](C)O)NC(=O)[C@@H]2CCCN2C(=O)[C@H](Cc2ccc(O)cc2)NC(=O)[C@H](C(C)(C)C)NC1=O [Compound 185] (Ac-C[Tle]YPT[Trp(7-aza)][Ac4c]AY[αMeV]T[dC]-NH2; linker 1-12 via mXylylene) |
